Assay results: US20110124888A1, “STYRYLBENZOFURAN DERIVATIVES AS INHIBITORS FOR BETA-AMYLOID FIBRIL FORMATION AND PREPARATION METHOD THEREOF” (Korea Institute of Science and Technology, priority 2008, published 2011)

How the values were obtained:
[1] = system: congo red-positive beta-amyloid plagues; assay: Immunohistochemistry: congo red-positive beta-amyloid plaque count in hippocampus and cortex of transgenic mice; assay type: in vivo; details: for Reduction rate (%) of beta-amyloid plaques, cortex / Reduction rate (%) of beta-amyloid plaques, hippocampus / Total reduction rate (%) of beta-amyloid plaques: vs Tg group
Experimental: The transgenic mice were screened and drug was administered thereto as described in 1) and 2) of Experimental Example 4. The brain was separated from the transgenic mouse and fixed in 10% neutral formalin solution. A region of the brain including the hippocampus and the cortex were subjected to removal, washing, dehydration and paraffin infiltration to obtain paraffin block including the brain tissue. The paraffin block was subjected to thin section in thickness of 8 μm to obtain the sections of all regions of hippocampus. Among them, 10 sections were elected at regular intervals. They were deparaffinized, hydrated, immersed in Mayer's hematoxylin for 1 min and rinsed with tap water. The rinsed tissue was reacted in an alkaline sodium chloride solution for 20 min, after then was reacted in an alkaline congo red solution for 20 min. The resulting tissue was washed with 100% ethyl alcohol, cleared with xylene and mounted using a synthetic mounting medium. In the hippocampus and cortex regions of the tissue preparations strained with congo red, congo red-positive beta-amyloid plagues were counted.

beta-amyloid 42 = beta-amyloid 42 (Homo sapiens, UniProt P05067); assay: Biochemical test: content of beta-amyloid 42 in hippocampus tissue of transgenic mice; assay type: in vivo; details: for Reduction rate (%) of beta amyloid 42 content: hippocampus tissue, based on the content of beta amyloid 42 in the Tg group
Sequence of beta-amyloid 42 (P05067 672-713 limits assumed): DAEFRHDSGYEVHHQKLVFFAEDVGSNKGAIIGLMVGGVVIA

Row | SMILES | Reduction rate (%) of beta-amyloid plaques, cortex ([1]; 30 mg/kg) [%] | Reduction rate (%) of beta-amyloid plaques, hippocampus ([1]; 30 mg/kg) [%] | Total reduction rate (%) of beta-amyloid plaques ([1]; 30 mg/kg) [%] | Reduction rate (%) of beta-amyloid plaques, cortex ([1]; 100 mg/kg) [%] | Reduction rate (%) of beta-amyloid plaques, hippocampus ([1]; 100 mg/kg) [%] | Total reduction rate (%) of beta-amyloid plaques ([1]; 100 mg/kg) [%] | beta-amyloid deposition in stained hippocampus and cortex tissues compared with tramiprosate (in words) ([1]; FIGS. 1 and 2) | reduction rate of beta-amyloid deposition compared with tramiprosate (in words) ([1]; Table 12, 30 and 100 mg/kg) | Reduction rate (%) of beta amyloid 42 content (beta-amyloid 42; 30 mg/kg) [%] | Reduction rate (%) of beta amyloid 42 content (beta-amyloid 42; 100 mg/kg) [%] | reduction rate of beta-amyloid plague compared with tramiprosate (in words) (beta-amyloid 42; Table 13, 30 and 100 mg/kg) | melting point [°C]
1 | COc1ccc2cc(C=Cc3ccc(N(C)C)cc3)oc2c1 [Compound 9, 6-methoxy-2-(4-dimethylaminostyryl)benzofuran] | 43 | 29 | 41 | 61 | 64 | 61 | remarkably reduced beta-amyloid deposition | remarkable reduction rate of beta-amyloid deposition in a dose-dependent manner | 41 | 48 | remarkable reduction rate of beta-amyloid plague in a dose-dependent manner | 
2 | CNc1ccc(C=Cc2cc3cc(OC)ccc3o2)cc1 [Compound 17, 5-methoxy-2-(4-methylaminostyryl)benzofuran] |  |  |  |  |  |  |  |  |  |  |  | 174 to 175
